Tests used:
141 human kinases = experiment: Kinase selectivity profiling, Dundee Premier Screen, whole panel; type: biochemical; conditions: number of kinases; compounds at 1 μM
Procedure: Kinase selectivity profiling was performed by the International Centre for Kinase Profiling, MRC Protein Phosphorylation and Ubiquitylation Unit (141 kinases; Premier Screen, http://www.kinase-screen.mrc.ac.uk), using a [γ-^33P]ATP filter binding assay ([Bain et al., 2007]). Compounds were screened at 1 μM. For key hits, pIC50 values were then determined by HTRF as above. More complete kinome profiling was performed by Reaction Biology (376 kinases). Stability in mouse and human liver microsomes was determined by Cyprotex.

rat ventricular myocytes = experiment: Rat cardiac muscle cell death induced by H2O2 (sub-G1 DNA, flow cytometry); type: cell-based
Procedure: Ventricular myocytes from 1 to 3 day-old Sprague-Dawley rats were enzymatically dissociated, purified by Percoll gradient centrifugation and pre-plating, and cultured as described ([Oh et al., 2003]). To detect hypodiploid DNA, flow cytometry was performed (XL or LSRII, BD Biosciences), using propidium iodide to measure DNA content and sampling > 5000 cells for each histogram. Myocyte identity was confirmed using FITC-conjugated MF-20 antibody to sarcomeric MyHC (R&D Systems). To detect dissipation of mitochondrial membrane potential (ΔΨm), cells were incubated for 60 min in 5 μg ml^-1 5, 5′, 6, 6’-tetrachloro-1, 1’, 3, 3′-tetraethylbenzimidazolyl carbocyanine iodide (DePsipher; R&D Systems). When ΔΨm is intact, mitochondrial uptake and aggregation of the dye result in red fluorescence; when ΔΨm is disturbed, the dye diffuses to the cytoplasm and reverts to its monomeric green form. Myocyte identity was confirmed using mouse antibody to sarcomeric tropomyosin (Sigma-Aldrich) conjugated with Texas Red-X (Molecular Probes).

cardiac MAP4K4 = cardiac MAP4K4 (Mus musculus, UniProt P97820); experiment: Target engagement ex vivo (block to desthiobiotin-ATP binding); conditions: adult mouse cardiac lysates; versus F1386-0303
Sequence of cardiac MAP4K4 (P97820 2-310 limits assumed): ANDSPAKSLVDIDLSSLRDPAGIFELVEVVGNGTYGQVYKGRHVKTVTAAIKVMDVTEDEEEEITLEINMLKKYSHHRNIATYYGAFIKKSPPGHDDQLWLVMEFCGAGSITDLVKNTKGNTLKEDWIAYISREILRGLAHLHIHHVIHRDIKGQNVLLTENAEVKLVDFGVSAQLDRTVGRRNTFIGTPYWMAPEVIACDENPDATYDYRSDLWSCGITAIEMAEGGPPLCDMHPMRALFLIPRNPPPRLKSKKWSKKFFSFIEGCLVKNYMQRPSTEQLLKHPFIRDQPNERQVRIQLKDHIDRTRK
Procedure: Lysates were prepared and assayed using a desthiobiotin-ATP probe Kinase Enrichment Kit (Thermo Fisher Scientific) ([Patricelli et al., 2011]). In brief, tissue samples (100-120 mg) were cut into small pieces and resuspended in 1 mL of Lysis Buffer containing protease and phosphatase inhibitors. After homogenization (30 s on ice), the lysates were centrifuged (16,000 x g at 4°C for 10 min) and a buffer-exchange to Reaction Buffer was performed, to remove endogenous ATPs. Protein concentrations were measured by the BCA assay (Thermo Fisher Scientific). Compounds were added to 500 μL of lysate at 2 mg/ml in presence of 20 mM MgCl2 and incubated for 10 min at room temperature. The ActivX desthiobiotin-ATP probe (5 μM) was added, and samples were incubated for 10 min. Reactions were stopped by adding 500 μL of 8 M Urea/Lysis Buffer, and labeled kinases were captured by incubating samples with 60 μL of 50% Streptavidin-Agarose beads. Samples were incubated with constant inversion for 2 hr at room temperature. Samples were centrifuged (1000 x g for 1 min) and washed three times with 500 μL of 4 M Urea/Lysis Buffer. Captured kinases were eluted by boiling in 30 μL of Laemmli sample buffer for 15 min. Samples were analyzed by western blotting for MAP4K4 and for Src or p38 and were normalized to the capture of the untargeted control kinase.

cardiomyocyte apoptosis = experiment: Cardiomyocyte apoptosis after myocardial infarction (TUNEL staining); type: in vivo, mice; conditions: post-injury study
Procedure: Mice were treated subcutaneously with 0.024 mg buprenorphine (average, 1.1 mg kg^-1; […] Animal Health), intubated, and ventilated using a tidal volume of 250 μL and respiratory rate of 150 breaths min^-1 (Hugo-Sachs MiniVent type 845; Harvard Apparatus). After a left thoracotomy in the fourth intercostal space, the pericardium was removed. A 6-0 polypropylene suture was used to […] anterior descending coronary artery (LAD) and tied against a short section of PE-50 polyethylene tubing for 45 min; blood flow was re-established by removing the tubing, releasing the ligature. Ischemia and reperfusion were substantiated by reversible distal blanching and ST segment elevation. Mice were allowed to recover in a heated chamber for 20 min, then moved to a normal holding cage with supplemental heat if necessary. […] Nuclei were stained with 2.5 μg ml^-1 diamidinophenolindole (DAPI). Alternatively, fixed frozen sections were used. Cleaved DNA (apoptotic cells) was visualized using TUNEL ApopTag Kits (Millipore). Cardiomyocytes were identified using MF20 antibody to sarcomeric myosin heavy chains (MyHC; R&D Systems) (fluorescein-conjugated: Figure S3C; unconjugated, plus Alexa Fluor-555 anti-mouse IgG: Figure […]; conjugated and unconjugated mouse IgG2b were the respective controls). Sections were counterstained with DAPI and treated with Prolong Gold Antifade Mountant (Life Technologies). […]

[1] = system: S. typhimurium TA98 and TA100; experiment: Ames genotoxicity reverse mutation assay
Procedure: Approximately 10^7 bacteria were exposed in triplicate to the test agent (six concentrations, 7.8-250 μg ml^-1), a vehicle control (vehicle) and a positive control for 90 min in low-histidine medium (sufficient for about 2 doublings.) The strains used were S. typhimurium TA98 (hisD3052, rfa, uvrB / pKM101; detects frameshift mutations) and TA100: hisG45, rfa, uvrB / pKM101; detects base-pair substitutions). The cultures were then diluted into indicator medium lacking histidine, dispensed into 384-well plates, and incubated for 48 hr at 37°C. The test was performed in the absence and presence of S9 metabolic activation, to identify pro-mutagens as well as directly acting mutagens. Only cells that underwent reversion grow, resulting in a color change. A two-fold increase over the vehicle control in the number of colonies indicates a positive response.

[2] = Glutathione (GSH)-trapping; type: in vitro ADME

Compound	off-target effects among 141 human kinases (141 human kinases)	rat cardiomyocyte death (rat ventricular myocytes; H2O2, even at 1 μM)	inhibition at 10 µM (rat ventricular myocytes; Ventricular myocyte, rat ventricular myocytes, 10 μM)	adverse effect of compound (rat ventricular myocytes; rat ventricular myocytes, any of the concentrations (1-10 μM))	greater affinity over the earlier compound (target engagement ex vivo) (cardiac MAP4K4)	suppression of cardiomyocyte apoptosis in adjacent jeopardized myocardium (cardiomyocyte apoptosis)	suppression of cardiomyocyte apoptosis within the infarct (cardiomyocyte apoptosis)	Ames test of mutagenic potential [1]	glutathione (GSH)-trapping [2]
Oc1ncnc2c1c(-c1ccccc1)cn2-c1ccccc1 [F1386-0303, 5,7-diphenyl-7H-pyrrolo[2,3-d]pyrimidin-4-ol]	5	inhibited	~50%	No adverse effect	–	–	–	–	–
COCCOc1ccc(-c2cn(-c3ccccc3)c3nc[nH]c(=O)c23)cc1 [DMX-5804, 5-[4-(2-methoxy-ethoxy)-phenyl]-7-phenyl-3,7-dihydro-pyrrolo[2,3-d]pyrimidin-4-one]	–	–	–	–	10 ×	52%	39%	no off-target effect	no off-target effect

Reference: publication PMC6458995, “MAP4K4 Inhibition Promotes Survival of Human Stem Cell-Derived Cardiomyocytes and Reduces Infarct Size In Vivo” (Cell Stem Cell, 2019)
